Experimental findings from patent publication US9556159B2, “Renin inhibitor” (MITSUBISHI TANABE PHARMA CORPORATION, priority 2012, dated 2017) are described below.

pIC50: −log10 of the molar value.

One assay deals with T1, Recombinant human renin (Homo sapiens, UniProt P00797).
T1 sequence (P00797 67-406): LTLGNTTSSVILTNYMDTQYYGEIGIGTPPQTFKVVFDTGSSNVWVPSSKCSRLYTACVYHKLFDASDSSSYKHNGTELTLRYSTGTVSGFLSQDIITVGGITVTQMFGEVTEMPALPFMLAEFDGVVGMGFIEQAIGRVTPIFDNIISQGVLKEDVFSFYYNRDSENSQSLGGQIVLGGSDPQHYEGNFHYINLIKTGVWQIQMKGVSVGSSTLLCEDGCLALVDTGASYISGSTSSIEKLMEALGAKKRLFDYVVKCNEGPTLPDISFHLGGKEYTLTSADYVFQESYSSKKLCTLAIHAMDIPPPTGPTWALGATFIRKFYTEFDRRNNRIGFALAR
Description: Inhibitory activity against human renin (fluorogenic peptide substrate). Type of assay: biochemical. Conditions: 37° C. for 1 hour, read-out: IC50. On the procedure: Inhibitory Activity Against Human Renin
A substrate of synthetic peptide (Nma-KHPFH LVIHK(Dnp)-NH2) and test compound were mixed, and fluorescence intensity was assayed using a fluorophotometer before starting an enzymatic reaction (exciting wavelength: 340 nm, measuring wavelength: 460 nm). Recombinant human renin was added and the mixture was incubated at 37° C. for 1 hour, and the fluorescence intensity was measured after the reaction using a fluorophotometer (exciting wavelength: 340 nm, measuring wavelength: 460 nm).
Consider `COC(=O)NCCCc1cc(OC)cc([C@@H](C)N(C(=O)[C@H]2CNCCO2)C2CC2)n1` [Example 87], for which the pIC50 was 8.32. On to `CCc1ccc2c([C@@H](C)N(C(=O)[C@H]3CNCCO3)C3CC3)nn(CCCNC(=O)OC)c2n1` [Example 89], for which the pIC50 is 9.00. Take `COC(=O)NCCCn1nc([C@@H](C)N(C(=O)[C@H]2CNCCO2)C2CC2)c2ccc(C(C)C)nc21` [Example 90]: the pIC50 is 9.10.

Turning to `COC(=O)NCCCc1cc(F)cc([C@@H](C)N(C(=O)[C@H]2CNCCO2)C2CC2)c1` [Example 92], the pIC50 is 8.72.

Consider `COCCCCn1cc([C@@H](C)N(C(=O)[C@H]2CNCCO2)C2CC2)c2ncc(C)nc21` [Example 93], for which the pIC50 is 8.80.

`COCc1ccc([C@@H](C)N(C(=O)[C@H]2CNCCO2)C2CC2)cc1OCCNC(=O)OC` [Example 95]: the pIC50 was 8.14. Still for that read-out and setting: to `COCc1ccc([C@@H](C)N(C(=O)[C@H]2CNCCO2)C2CC2)cc1CCCNC(=O)OC` [Example 96] belongs 9.10; to `COC(=O)NCCCc1cc([C@@H](C)N(C(=O)[C@H]2CNCCO2)C2CC2)cc(C)n1` [Example 97], 8.09; to `COC(=O)NCCCc1cc([C@@H](C)N(C(=O)[C@H]2CNCCO2)C2CC2)cc(Cl)n1` [Example 98], 8.55. Turning to `COC(=O)NCCCc1cc([C@@H](C)N(C(=O)[C@H]2CNCCO2)C2CC2)cc(C(C)C)n1` [Example 99], the negative logarithm of the IC50 (pIC50) is 8.74.

With `COC(=O)NCCCn1nc([C@@H](C)N(C(=O)[C@H]2CNCCO2)C2CC2)c2ccc(CN(C)C)nc21` [Example 100], the pIC50 is 8.05. Same read-out and setting: to `CCOc1ccnc2c([C@@H](C)N(C(=O)[C@H]3CNCCO3)C3CC3)cn(CCCCOC)c12` [Example 101] belongs 8.60; to `COC(=O)NCCCn1cc([C@@H](C)N(C(=O)[C@H]2CNCCO2)C2CC2)c2ncc(C)nc21` [Example 102], 9.40. Same read-out and setting: with `COCCCCn1cc([C@@H](C)N(C(=O)[C@H]2CNCCO2)C2CC2)c2cnc(C)nc21` [Example 103] the figure was 8.68. The same measure, in the same setting: with `COC(=O)NCCOc1cc([C@@H](C)N(C(=O)[C@H]2CNCCO2)C2CC2)nc2c1CCCC2` [Example 104] the figure was 8.09; with `COCc1ccc2c([C@@H](C)N(C(=O)[C@H]3CNCCO3)C3CC3)nn(CCCNC(=O)OC)c2n1` [Example 105], 8.92. Take `CCOc1ccc([C@@H](C)N(C(=O)[C@H]2CNCCO2)C2CC2)cc1CCCNC(=O)OC` [Example 106]: the pIC50 is 9.15. On the same count and under the same terms, with `COC(=O)NCCCc1cc([C@@H](C)N(C(=O)[C@H]2CNCCO2)C2CC2)ccc1OC(C)C` [Example 107] the figure was 9.15; with `COC(=O)NCCc1cn(C)c2ccc([C@@H](C)N(C(=O)[C@H]3CNCCO3)C3CC3)cc12` [Example 108], 8.96. On the same count and under the same terms, with `CCc1cc([C@@H](C)N(C(=O)[C@H]2CNCCO2)C2CC2)cc(OCCNC(=O)OC)n1` [Example 109] the figure was 8.47; with `COCCCCc1cc([C@@H](C)N(C(=O)[C@H]2CNCCO2)C2CC2)cc(C(C)C)n1` [Example 110], 9.05. The same measure, in the same setting: with `COC(=O)NCCCn1nc([C@@H](C)N(C(=O)[C@H]2CNCCO2)C2CC2)c2ccc(CN(C)C)cc21` [Example 111] the figure was 8.46; with `CCc1cc([C@@H](C)N(C(=O)[C@H]2CNCCO2)C2CC2)cc(CCCCOC)n1` [Example 112], 8.70.

Still in this assay, the particulars now being: 50% inhibitory concentration (IC50) against human renin, 37° C. for 1 hour.
Regarding `COCCCc1cn(C)c2c(C)nc([C@@H](C)N(C(=O)[C@H]3CNCCO3)C3CC3)cc12` [Example 113], the pIC50 was 8.85. As to `COC(=O)NCCCn1cc([C@@H](C)N(C(=O)[C@H]2CNCCO2)C2CC2)c2ncc(Br)cc21` [Example 114], the pIC50 is 8.96.

In the case of `COCCCCn1cc([C@@H](C)N(C(=O)[C@H]2CNCCO2)C2CC2)c2nccc(COC)c21` [Example 115], the pIC50 was 8.74. For `COC(=O)NCCCc1cc([C@@H](C)N(C(=O)[C@H]2CNCCO2)C2CC2)nc2ccccc12` [Example 119], the pIC50 is 9.30. Take `CCc1cc(CCCNC(=O)OC)cc([C@@H](C)N(C(=O)[C@H]2CNCCO2)C2CC2)n1` [Example 120]: the pIC50 is 8.77. `COC(=O)NCCCc1cc([C@@H](C)N(C(=O)[C@H]2CNCCO2)C2CC2)ncc1OC` [Example 121]: the pIC50 was 8.27.

Consider `COC(=O)NCCCc1cc([C@@H](C)N(C(=O)[C@H]2CNCCO2)C2CC2)nc2c1CCCC2` [Example 122], for which the pIC50 was 9.70. Same read-out and setting: to `COCCCCc1cc([C@@H](C)N(C(=O)[C@H]2CNCCO2)C2CC2)nc2c1CCCC2` [Example 123] belongs 9.10; to `COCCCc1cn(C)c2cnc([C@@H](C)N(C(=O)[C@H]3CNCCO3)C3CC3)cc12` [Example 125], 8.89; to `CCc1ncc([C@@H](C)N(C(=O)[C@H]2CNCCO2)C2CC2)cc1CCCCOC` [Example 126], 8.22. The same measure, in the same setting: with `COC(=O)NCCCc1cc([C@@H](C)N(C(=O)[C@H]2CNCCO2)C2CC2)cnc1-c1ccccc1` [Example 128] the figure was 8.85; with `COC(=O)NCCCc1cc([C@@H](C)N(C(=O)[C@H]2CNCCO2)C2CC2)cc(C2CC2)n1` [Example 129], 8.89. Same read-out and setting: to `CCc1cn(CCCOC)c2cc([C@@H](C)N(C(=O)[C@H]3CNCCO3)C3CC3)nc(Cl)c12` [Example 130] belongs 8.82; to `COC(=O)NCCCc1cc(C2CC2)nc([C@@H](C)N(C(=O)[C@H]2CNCCO2)C2CC2)c1` [Example 133], 8.80. For `COCCCCn1cc([C@@H](C)N(C(=O)[C@H]2CNCCO2)C2CC2)c2ccnc(C)c21` [Example 134], the pIC50 was 8.20. Consider `COC(=O)NCCCn1cc([C@@H](C)N(C(=O)[C@H]2CNCCO2)C2CC2)c2cnc(C)cc21` [Example 135], for which the pIC50 was 8.20.

As to `COC(=O)NCCCn1cc([C@@H](C)N(C(=O)[C@H]2CNCCO2)C2CC2)nc1-c1ccccc1` [Example 136], the pIC50 is 9.52. For `COC(=O)NCCCc1cc([C@@H](C)N(C(=O)[C@H]2CNCCO2)C2CC2)cnc1C1CCCC1` [Example 137], the pIC50 is 9.40. As for `COC(=O)NCCCn1cc(C(C)N(C(=O)[C@H]2CNCCO2)C2CC2)c2ccnc(C)c21` (some centres unmarked) [Example 138], the pIC50 was 8.21.

Take `COC(=O)NCCCn1cc(C(C)N(C(=O)[C@H]2CNCCO2)C2CC2)c2ncc(F)cc21` (some centres unmarked) [Example 139]: the pIC50 was 8.68. Still for that read-out and setting: to `CCc1nc([C@@H](C)N(C(=O)[C@H]2CNCCO2)C2CC2)cc2c1c(C)cn2CCCOC` [Example 140] belongs 9.10; to `COC(=O)NCCCc1cc([C@@H](C)N(C(=O)[C@H]2CNCCO2)C2CC2)nc2ccc(OC)cc12` [Example 141], 9.30. For `COC(=O)NCCCc1cc([C@@H](C)N(C(=O)[C@H]2CNCCO2)C2CC2)nc2ccc(F)cc12` [Example 142], the pIC50 is 9.30. Same read-out and setting: to `COC(=O)NCCCc1cc([C@@H](C)N(C(=O)[C@H]2CNCCO2)C2CC2)nc2cc(F)c(F)cc12` [Example 143] belongs 8.82; to `COC(=O)NCCCc1cc([C@@H](C)N(C(=O)[C@H]2CNCCO2)C2CC2)nc2ccc(C)cc12` [Example 144], 9.15; to `COC(=O)NCCCc1cc([C@@H](C)N(C(=O)[C@H]2CNCCO2)C2CC2)cc2cccnc12` [Example 145], 9.30.

As for `COC(=O)NCCCc1cc([C@@H](C)N(C(=O)[C@H]2CNCCO2)C2CC2)nc2ccc(C#N)cc12` [Example 146], the pIC50 is 9.00. With `CCc1nc([C@@H](C)N(C(=O)[C@H]2CNCCO2)C2CC2)cc2c1ccn2Cc1ccccc1` [Example 147], the pIC50 was 8.60. Still for that read-out and setting: to `Cc1nc([C@@H](C)N(C(=O)[C@H]2CNCCO2)C2CC2)cc2c1ccn2Cc1ccccc1` [Example 148] belongs 8.29; to `COC(=O)NCCCc1cc([C@@H](C)N(C(=O)[C@H]2CNCCO2)C2CC2)cc2ncccc12` [Example 149], 9.10; to `CCc1cn(CCCOC)c2cc([C@@H](C)N(C(=O)[C@H]3CNCCO3)C3CC3)nc(C#N)c12` [Example 150], 8.59. The same measure, in the same setting: with `COC(=O)NCCN1CC(C)(C)c2ccc([C@@H](C)N(C(=O)[C@H]3CNCCO3)C3CC3)cc21` [Example 151] the figure was 9.00.

In the case of `CCc1cn(CCCOC)c2cc([C@@H](C)N(C(=O)[C@H]3CNCCO3)C3CC3)nc(CC)c12` [Example 152], the pIC50 was 8.96. As for `COCCCn1cc(COC)c2c(C(C)C)nc([C@@H](C)N(C(=O)[C@H]3CNCCO3)C3CC3)cc21` [Example 153], the pIC50 is 8.66.

In the case of `COC(=O)NCc1cc([C@@H](C)N(C(=O)[C@H]2CNCCO2)C2CC2)nc2ccccc12` [Example 154], the pIC50 was 8.62. On the same count and under the same terms, with `CCc1nc([C@@H](C)N(C(=O)[C@H]2CNCCO2)C2CC2)cc2c1c(F)cn2CCCOC` [Example 155] the figure was 9.10; with `COc1ccc2nc([C@@H](C)N(C(=O)[C@H]3CNCCO3)C3CC3)cc(CCCNC(C)=O)c2c1` [Example 156], 8.68. On the same count and under the same terms, with `COc1ccc2nc([C@@H](C)N(C(=O)[C@H]3CNCCO3)C3CC3)cc(CCCNC=O)c2c1` [Example 157] the figure was 8.47; with `COC(=O)NCCCn1nc([C@@H](C)N(C(=O)[C@H]2CNCCO2)C2CC2)cc1-c1ccc(F)cc1` [Example 158], 9.52.
